Measurements from US7375259B1, “Solanum tuberosum sterol alkaloid glycosyltransferase (SGT) a novel solanidine glucosyltransferase SGT2 and uses thereof” (priority 2005, dated 2008).

Key:
recombinant SGT2 = assay: in vitro solanidine glycosyltransferase assay of recombinant SGT2 with Solanaceous aglycones and UDP-[3H]sugar donors; conditions: for SGT2 galactosyltransferase activity with aglycone substrate: UDP-[3H]galactose as sugar donor, activity threshold 2-fold the reaction blank; for SGT2 glucosyltransferase activity with aglycone substrate: UDP-[3H]glucose as sugar donor, 60 min, 37° C., SGAs and UDP-sugars 33 μM
SGT2 = type: biochemical, Solanum tuberosum; conditions: 1,000 μM inhibitor
Colorado potato beetle = conditions: artificial diets; Kowalski et al. 1999; cited from earlier work

Compound: C[C@H]1CC[C@@H]2[C@@H](C)[C@H]3[C@H](C[C@H]4[C@@H]5CC=C6C[C@@H](O)CC[C@]6(C)[C@H]5CC[C@]34C)N2C1 [solanidine]
- SGT2 galactosyltransferase activity with aglycone substrate (recombinant SGT2): No activity
- SGT2 glucosyltransferase activity with aglycone substrate (recombinant SGT2): maximum activity

Compound: C[C@@H]1CC[C@@]2(NC1)O[C@H]1C[C@H]3[C@@H]4CC=C5C[C@@H](O)CC[C@]5(C)[C@H]4CC[C@]3(C)[C@H]1[C@@H]2C [solasodine]
- SGT2 galactosyltransferase activity with aglycone substrate (recombinant SGT2): No activity
- SGT2 glucosyltransferase activity with aglycone substrate (recombinant SGT2): readily capable of utilizing UDP-glucose as a substrate

Compound: C[C@H]1CC[C@]2(NC1)O[C@H]1C[C@H]3[C@@H]4CC[C@H]5C[C@@H](O)CC[C@]5(C)[C@H]4CC[C@]3(C)[C@H]1[C@@H]2C [tomatidine]
- SGT2 galactosyltransferase activity with aglycone substrate (recombinant SGT2): No activity
- SGT2 glucosyltransferase activity with aglycone substrate (recombinant SGT2): readily capable of utilizing UDP-glucose as a substrate

Compound: C[C@H]1CC[C@@H]2[C@@H](C)[C@H]3[C@H](C[C@H]4[C@@H]5CC=C6C[C@@H](O[C@@H]7O[C@H](CO)[C@H](O[C@@H]8O[C@@H](C)[C@H](O)[C@@H](O)[C@H]8O)[C@H](O)[C@@H]7O[C@@H]7O[C@@H](C)[C@@H](O)[C@@H](O)[C@H]7O)CC[C@]6(C)[C@H]5CC[C@]34C)N2C1 [α-chaconine]
- inhibition of SGT2 activity (in words) (SGT2): completely inhibited

Compound: C[C@H]1CC[C@@H]2[C@@H](C)[C@H]3[C@H](C[C@H]4[C@@H]5CC=C6C[C@@H](O[C@@H]7O[C@H](CO)[C@H](O)[C@H](O[C@@H]8O[C@H](CO)[C@@H](O)[C@H](O)[C@H]8O)[C@H]7O[C@@H]7O[C@@H](C)[C@H](O)[C@@H](O)[C@H]7O)CC[C@]6(C)[C@H]5CC[C@]34C)N2C1 [α-solanine]
- toxicity to the Colorado potato beetle (Colorado potato beetle): more toxic
- inhibition of SGT2 activity (SGT2): 39%
